Test results: ChEMBL document CHEMBL1142986, “Synthesis of valiolamine and some precursors for bioactive carbaglycosylamines from (-)-vibo-quercitol produced by biogenesis of myo-inositol” (J Nat Prod, 2007)
pIC50: −log10 of the molar value.

Target: Alpha-glucosidase MAL12 (Saccharomyces cerevisiae S288c, UniProt P53341)
Assay: Inhibition of baker's yeast alpha-glucosidase

Alpha-glucosidase MAL12, sequence (P53341 whole entry): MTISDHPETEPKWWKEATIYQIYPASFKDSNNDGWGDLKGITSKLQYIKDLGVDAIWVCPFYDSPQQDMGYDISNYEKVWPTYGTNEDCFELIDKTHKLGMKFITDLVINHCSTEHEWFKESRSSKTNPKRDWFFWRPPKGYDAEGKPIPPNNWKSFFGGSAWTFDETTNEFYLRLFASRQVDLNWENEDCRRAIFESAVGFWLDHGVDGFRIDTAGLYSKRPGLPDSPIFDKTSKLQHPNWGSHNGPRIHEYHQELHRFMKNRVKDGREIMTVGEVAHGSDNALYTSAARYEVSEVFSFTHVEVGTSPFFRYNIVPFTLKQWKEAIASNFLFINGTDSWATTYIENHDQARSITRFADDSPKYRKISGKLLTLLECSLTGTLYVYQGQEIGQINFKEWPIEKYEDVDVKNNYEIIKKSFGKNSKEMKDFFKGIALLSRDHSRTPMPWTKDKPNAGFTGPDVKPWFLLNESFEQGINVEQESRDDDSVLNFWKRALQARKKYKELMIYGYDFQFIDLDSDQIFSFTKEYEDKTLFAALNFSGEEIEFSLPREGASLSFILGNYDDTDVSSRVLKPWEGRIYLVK

pIC50: 4.44
SMILES: N[C@@H]1C[C@](O)(CO)[C@@H](O)[C@H](O)[C@H]1O
